Assay: Storage stability in pet chew matrix
Format: physicochemical
Details: water activity (aw) 0.4, 4 weeks of storage
Description: Stability of Bacillus Strains 1-3 was measured in a pet chew matrix with water activity (aw) level of 0.4, which is typically growth-prohibitive for other bacteria such as Lactobacillus. While Lactobacillus viability declined over 4 weeks of storage, Bacillus Strains 1-3 remained viable for 4 weeks, with loss of viability being less than <0.5 log 10 (FIGS. 3B and 3D).

Lactobacillus
viability over storage: declined

Reference: patent publication US20240299469A1, “PRODUCTION OF INDOLE-DERIVED METABOLITES BY SHELF-STABLE COMMUNITIES OF SAFE BACTERIA” (Imvela Corp., priority 2023, published 2024)
